Data taken from patent publication US20250134874A1, “PHARMACEUTICAL FORMULATIONS COMPRISING 3-({[(4R)-7-{METHYL[4-(PROPAN-2-YL)PHENYL]AMINO}-3,4-DIHYDRO-2H-1-BENZOPYRAN-4-YL]METHYL}AMINO)PYRIDINE-4-CARBOXYLIC ACID” (TACHYON THERAPEUTICS, INC., priority 2021, published 2025).

Test system: 301 cancer cell lines from different tumor types (OncoPanel; HD Biosciences)
Assay: 2D cell viability inhibition assay (CellTiter-Glo) in cancer cell line panel
Format: cell-based
Design: key to AUC: AUC as fraction of the no-inhibition area (dose range × 0–100 % of control)
Conditions: for Emax: in %
Experimental: In a larger screening study, compound 1 was evaluated across a broad cancer cell line panel (OncoPanel; HD Biosciences) composed of 301 cancer cell lines from different tumor types.
2D cell viability inhibition assays were performed in multiwell plates seeded with cells from the panel. After seeding, the plates were cultured overnight in a humidified incubator at 37° C. to promote adherence. Assays were initiated in individual wells by adding either DMSO as a vehicle control, growth media as a blank, or serially diluted compound 1 (10 μM to 0.0005 μM with 1:3 serial dilution). Cultures were incubated for 168 hours after which the number of viable cells in each test well was assessed using the CellTiter-Glo® Luminescent Cell Viability Assay. Luminescence readouts were performed using an EnVision® Multilabel Reader and the compound 1 readouts were normalized to the DMSO control readouts, expressed as a percent of the control. Outliers were flagged out by visual inspection. Percent of control was plotted against the corresponding compound 1 concentration and the absolute IC50 value was determined using four-parameter logistic non-linear regression as the concentration where inhibition was 50% of the control. For maximum inhibition <50%, the absolute IC50 was reported as >10. In addition to EC50 and IC50, AUC was determined and was normalized to the area corresponding to theoretical no-inhibition (the rectangular area defined by the compound dose range and 0 to 100 in y). Emax was recorded as the minimum in y with the compound dose range. For those cell lines where Emax>40, EC50 was manually set to 10 μM. A hierarchical clustering algorithm based on Euclidean distance between the standardized input values and “Ward.D” method as implemented in R hclust function was used to visualize the compound 1 cellular potency data. The sensitive/moderate/resistant calls for each cell line was determined by visually inspecting the resulting clustering dendrogram. All the analyses were done in R Core Team.

[1] = Homo sapiens, 143B, 143B cell line
[2] = Homo sapiens, 647-V, 647V cell line
[3] = Homo sapiens, 786-0, 7860 cell line
[4] = Homo sapiens, A101D, A101D cell line
[5] = Homo sapiens, A549, A549 cell line
[6] = Homo sapiens, A2058, A2058 cell line
[7] = Homo sapiens, A2780, A2780 cell line
[8] = Homo sapiens, A-375, A375 cell line
[9] = Homo sapiens, ACHN, ACHN cell line
[10] = Homo sapiens, AGS, AGS cell line
[11] = Homo sapiens, ASPC1, ASPC1 cell line
[12] = Homo sapiens, AZ-521, AZ521 cell line
[13] = Homo sapiens, BFTC-905, BFTC905 cell line
[14] = Homo sapiens, BT-549, BT549 cell line
[15] = Homo sapiens, BXPC-3, BXPC3 cell line
[16] = Homo sapiens, C32, C32 cell line
[17] = Homo sapiens, CAKI-1, CAKI1 cell line
[18] = Homo sapiens, CFPAC-1, CFPAC1 cell line
[19] = Homo sapiens, CHL-1, CHL1 cell line
[20] = Homo sapiens, COLO 205, COLO205 cell line
[21] = Homo sapiens, COLO-320-HSR, COLO320HSR cell line
[22] = Homo sapiens, COLO-679, COLO679 cell line
[23] = Homo sapiens, COLO-680N, COLO680N cell line
[24] = Homo sapiens, COLO-741, COLO741 cell line
[25] = Homo sapiens, COR-L279, CORL279 cell line

In the case of `CC(C)c1ccc(N(C)c2ccc3c(c2)OCC[C@H]3CNc2cnccc2C(=O)O)cc1` [Compound 1, 3-({[(4R)-7-{methyl[4-(propan-2-yl)phenyl]amino}-3,4-dihydro-2H-1-benzopyran-4-yl]methyl}amino)pyridine-4-carboxylic acid], the AUC (HCC1599 cell line) is reported as 0.4639, the Emax (HCC1599 cell line) is reported as 32.7 and the AUC (HCC1806 cell line) is reported as 0.5325. It also gave an Emax (HCC1806 cell line) of 36.87, an AUC (HCC1937, breast, ductal carcinoma, 168 hours) of 0.9094 and an AUC (HCC1954 cell line) of 0.5912. It also gave an AUC (HCC2935 cell line) of 0.6922, an AUC (HCT15 cell line) of 0.1838 and an Emax (HCT15 cell line) of 4.541. For the same molecule, the AUC (HCT116 cell line) was 0.5356, the AUC (HEL cell line) was 0.5268 and the Emax (HEL cell line) was 28.89. It also gave an AUC (HEP3B217 cell line) of 0.6448, an IC50 (HEP3B217 cell line) of 129 nM and an AUC (HEPG2 cell line) of 0.6086. The AUC (HL60 cell line) was 0.3703, the Emax (HL60 cell line) was 9.446 and the AUC (HLE cell line) was 0.3839. It also gave an Emax (HLE cell line) of 7.876, an AUC (HLF cell line) of 0.4657 and an Emax (HLF cell line) of 18.25. It also gave an EC50 (HLF, HLF cell line) of 11.5 nM, an IC50 (HLF, HLF cell line) of 18 nM and an AUC (HMCB cell line) of 0.5041. For the same molecule, the Emax (HMCB cell line) was 32.25, the AUC (HPAC cell line) was 0.3965 and the AUC (HS294T cell line) was 0.6005. The AUC (HS578T cell line) was 0.5373, the Emax (HS578T cell line) was 32.75 and the AUC (HS688AT, skin, NS, 168 hours) was 1.105. It also gave an AUC (HS695T, skin, NS, 168 hours) of 0.9238, an AUC (HS739T, breast, NS, 168 hours) of 0.8686 and an AUC (HS839T, skin, NS, 168 hours) of 1.097. The AUC (HS852T, skin, NS, 168 hours) was 0.883, the AUC (HSC2 cell line) was 0.4511 and the Emax (HSC2 cell line) was 26.01. It also gave an AUC (HSC3 cell line) of 0.6313, an AUC (HSC4 cell line) of 0.4347 and an Emax (HSC4 cell line) of 23.28. It also gave an AUC (HT29 cell line) of 0.5741, an AUC (HT55 cell line) of 0.4704 and an Emax (HT55 cell line) of 22.172. For the same molecule, the AUC (HT144, skin, NS, 168 hours) was 0.8912, the AUC (HT1080 cell line) was 0.5438 and the Emax (HT1080 cell line) was 29.74. For the same molecule, the AUC (HT1376 cell line) was 0.5519, the AUC (HUH1 cell line) was 0.4145 and the Emax (HUH1 cell line) was 11.68. For the same molecule, the AUC (HUH7 cell line) was 0.3926, the Emax (HUH7 cell line) was 7.054 and the AUC (HUH28, biliary tract, NS, 168 hours) was 0.9862. It also gave an AUC (HUTU80 cell line) of 0.3016, an EC50 [1] of 13.9 nM and an IC50 [1] of 14.4 nM. For the same molecule, the EC50 [2] was 11.2 nM, the IC50 [2] was 12.2 nM and the EC50 [3] was 11.7 nM. For the same molecule, the IC50 [3] was 22.5 nM, the EC50 [4] was 6.91 nM and the IC50 [4] was 11 nM. The IC50 (Homo sapiens, A204, 168 h, A204, soft tissue, NS, 168 hours) was > 10000 nM, the EC50 [5] was 18.5 nM and the IC50 [5] was 32.4 nM. For the same molecule, the EC50 [6] was 28.1 nM, the IC50 [6] was 46.8 nM and the EC50 [7] was 2.1 nM. The IC50 [7] was 2.14 nM, the EC50 [8] was 7.62 nM and the IC50 [8] was 10.6 nM. The EC50 [9] was 30.3 nM, the IC50 [9] was 34.7 nM and the EC50 [10] was 5.18 nM. It also gave an IC50 [10] of 6.19 nM, an EC50 [11] of 18.9 nM and an IC50 [11] of 66.8 nM. The EC50 [12] was 3.84 nM, the IC50 [12] was 4.19 nM and the EC50 [13] was 8.93 nM. The IC50 [13] was 9.91 nM, the IC50 (Homo sapiens, BT-20, 168 h, BT20, breast, ductal carcinoma, 168 hours) was > 10000 nM and the IC50 (Homo sapiens, BT-474, 168 h, BT474, breast, ductal carcinoma, 168 hours) was > 10000 nM. For the same molecule, the EC50 [14] was 5.84 nM, the IC50 [14] was 9.98 nM and the EC50 [15] was 8.45 nM. The IC50 [15] was 19.4 nM, the IC50 (Homo sapiens, C2BBe1, 168 h, C2BBE1, large intestine, adenocarcinoma, 168 hours) was > 10000 nM and the EC50 [16] was 5.18 nM. The IC50 [16] was 5.36 nM, the EC50 [17] was ≥ 10000 nM and the IC50 [17] was 4.43 nM. The IC50 (Homo sapiens, CAL-27, 168 h, CAL27, upper aerodigestive tract, squamous cell carcinoma, 168 hours) was > 10000 nM, the IC50 (Homo sapiens, CAPAN-1, CAPAN1 cell line) was 116 nM and the IC50 (Homo sapiens, CCF-STTG1, 168 h, CCFSTTG1, central nervous system, astrocytoma, 168 hours) was > 10000 nM. The EC50 [18] was 11.3 nM, the IC50 [18] was 15.3 nM and the EC50 [19] was 4.68 nM. For the same molecule, the IC50 [19] was 6.08 nM, the EC50 [20] was 5.97 nM and the IC50 [20] was 11.5 nM. It also gave an EC50 [21] of 4.46 nM, an IC50 [21] of 4.61 nM and an EC50 [22] of 2340 nM. The IC50 [22] was 2040 nM, the EC50 [23] was 4.79 nM and the IC50 [23] was 6.97 nM. For the same molecule, the EC50 [24] was 6.86 nM, the IC50 [24] was 10.4 nM and the IC50 (Homo sapiens, COLO-829, COLO829 cell line) was > 10000 nM. For the same molecule, the EC50 [25] was 4.23 nM, the IC50 [25] was 4.34 nM and the IC50 (Homo sapiens, Calu-1, 168 h, CALU1, lung, squamous cell carcinoma, 168 hours) was > 10000 nM. The IC50 (Homo sapiens, Calu-3, 168 h, CALU3, lung, adenocarcinoma, 168 hours) was > 10000 nM and the EC50 (Homo sapiens, Calu-6, CALU6 cell line) was 11.5 nM.
